Data taken from ChEMBL document CHEMBL3804811 (J Med Chem, 2016).
The source made the active and inactive calls. The rule behind the calls is not given here.

Tests used:
[1] = Clearance in Sprague-Dawley rat at 10 mg/kg, iv administered as single dose by LC-MS/MS analysis; format: ADME, organism-based; settings: in vivo
[2] = Half life in Harlan nu/nu mouse at 10 mg/kg, iv administered as single dose by LC-MS/MS analysis; format: ADME, organism-based; settings: in vivo
[3] = Half life in Beagle dog at 10 mg/kg, iv administered as single dose by LC-MS/MS analysis; format: ADME, organism-based, Canis lupus familiaris; settings: in vivo
[4] = AUC (infinity) in Harlan nu/nu mouse at 10 mg/kg, iv administered as single dose by LC-MS/MS analysis; format: ADME, organism-based; design: dose 10 mg/kg, time infinity, route intravenous; settings: in vivo
[5] = Half life in Sprague-Dawley rat at 10 mg/kg, po administered as single dose by LC-MS/MS analysis; format: ADME, organism-based; settings: in vivo
[6] = target: T1, Eukaryotic translation initiation factor 2-alpha kinase 3 (Homo sapiens, UniProt Q9NZJ5); assay: Inhibition of PERK (unknown origin) in presence of gamma33-ATP
T1 sequence (Q9NZJ5 whole entry): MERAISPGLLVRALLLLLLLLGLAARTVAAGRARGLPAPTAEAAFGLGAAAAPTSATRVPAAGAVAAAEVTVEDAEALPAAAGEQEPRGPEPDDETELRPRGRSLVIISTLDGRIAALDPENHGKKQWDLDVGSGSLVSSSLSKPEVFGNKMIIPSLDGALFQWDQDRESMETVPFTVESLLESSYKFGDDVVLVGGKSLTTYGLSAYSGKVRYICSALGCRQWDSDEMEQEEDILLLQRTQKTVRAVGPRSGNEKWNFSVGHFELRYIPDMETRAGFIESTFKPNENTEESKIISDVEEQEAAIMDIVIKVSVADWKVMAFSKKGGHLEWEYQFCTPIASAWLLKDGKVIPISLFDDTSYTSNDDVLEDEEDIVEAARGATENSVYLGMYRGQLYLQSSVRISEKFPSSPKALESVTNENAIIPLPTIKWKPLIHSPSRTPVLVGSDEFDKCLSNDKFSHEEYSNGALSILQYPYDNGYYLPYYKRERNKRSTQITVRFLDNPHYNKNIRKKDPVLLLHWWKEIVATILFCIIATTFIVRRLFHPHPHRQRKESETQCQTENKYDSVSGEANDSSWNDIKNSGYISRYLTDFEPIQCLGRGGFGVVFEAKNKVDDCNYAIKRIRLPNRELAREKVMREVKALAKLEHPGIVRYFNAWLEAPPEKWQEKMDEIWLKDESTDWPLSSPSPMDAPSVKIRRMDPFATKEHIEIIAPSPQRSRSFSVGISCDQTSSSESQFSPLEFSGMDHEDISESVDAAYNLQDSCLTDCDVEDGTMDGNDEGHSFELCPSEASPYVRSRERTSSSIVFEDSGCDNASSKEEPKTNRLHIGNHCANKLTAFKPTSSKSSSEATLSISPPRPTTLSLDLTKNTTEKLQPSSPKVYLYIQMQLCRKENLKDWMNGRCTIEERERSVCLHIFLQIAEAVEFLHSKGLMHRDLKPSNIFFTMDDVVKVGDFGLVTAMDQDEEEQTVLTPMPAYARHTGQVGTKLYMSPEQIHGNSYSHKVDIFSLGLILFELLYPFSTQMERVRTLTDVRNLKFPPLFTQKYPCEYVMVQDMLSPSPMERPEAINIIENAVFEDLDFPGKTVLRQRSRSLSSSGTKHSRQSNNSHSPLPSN

[7] = Tmax in Beagle dog at 10 mg/kg, po administered as single dose by LC-MS/MS analysis; format: ADME, organism-based, Canis lupus familiaris; settings: in vivo
[8] = target: Serine/threonine-protein kinase NIM1 (Homo sapiens, UniProt Q8IY84); assay: Inhibition of NIM1 (unknown origin) in presence of gamma33-ATP
[9] = Ratio of drug level in brain to plasma in Harlan nu/nu mouse at 240 mg/kg, po administered per day for 2 weeks measured 6 hrs post last dose by LC-MS/MS analysis; format: ADME, organism-based; settings: read-out: BPR
Mus musculus = assay: Toxicity in SCID mouse xenografted with human KARPAS299 cells assessed as body weight loss at 30 to 60 mg/kg, po bid administered for 10 days; format: organism-based, KARPAS-299; settings: in vivo, 240 h
[10] = target: T2, Tyrosine-protein kinase JAK3 (Homo sapiens, UniProt P52333); assay: Inhibition of JAK3 (unknown origin) in presence of gamma33-ATP
T2 sequence (P52333 whole entry): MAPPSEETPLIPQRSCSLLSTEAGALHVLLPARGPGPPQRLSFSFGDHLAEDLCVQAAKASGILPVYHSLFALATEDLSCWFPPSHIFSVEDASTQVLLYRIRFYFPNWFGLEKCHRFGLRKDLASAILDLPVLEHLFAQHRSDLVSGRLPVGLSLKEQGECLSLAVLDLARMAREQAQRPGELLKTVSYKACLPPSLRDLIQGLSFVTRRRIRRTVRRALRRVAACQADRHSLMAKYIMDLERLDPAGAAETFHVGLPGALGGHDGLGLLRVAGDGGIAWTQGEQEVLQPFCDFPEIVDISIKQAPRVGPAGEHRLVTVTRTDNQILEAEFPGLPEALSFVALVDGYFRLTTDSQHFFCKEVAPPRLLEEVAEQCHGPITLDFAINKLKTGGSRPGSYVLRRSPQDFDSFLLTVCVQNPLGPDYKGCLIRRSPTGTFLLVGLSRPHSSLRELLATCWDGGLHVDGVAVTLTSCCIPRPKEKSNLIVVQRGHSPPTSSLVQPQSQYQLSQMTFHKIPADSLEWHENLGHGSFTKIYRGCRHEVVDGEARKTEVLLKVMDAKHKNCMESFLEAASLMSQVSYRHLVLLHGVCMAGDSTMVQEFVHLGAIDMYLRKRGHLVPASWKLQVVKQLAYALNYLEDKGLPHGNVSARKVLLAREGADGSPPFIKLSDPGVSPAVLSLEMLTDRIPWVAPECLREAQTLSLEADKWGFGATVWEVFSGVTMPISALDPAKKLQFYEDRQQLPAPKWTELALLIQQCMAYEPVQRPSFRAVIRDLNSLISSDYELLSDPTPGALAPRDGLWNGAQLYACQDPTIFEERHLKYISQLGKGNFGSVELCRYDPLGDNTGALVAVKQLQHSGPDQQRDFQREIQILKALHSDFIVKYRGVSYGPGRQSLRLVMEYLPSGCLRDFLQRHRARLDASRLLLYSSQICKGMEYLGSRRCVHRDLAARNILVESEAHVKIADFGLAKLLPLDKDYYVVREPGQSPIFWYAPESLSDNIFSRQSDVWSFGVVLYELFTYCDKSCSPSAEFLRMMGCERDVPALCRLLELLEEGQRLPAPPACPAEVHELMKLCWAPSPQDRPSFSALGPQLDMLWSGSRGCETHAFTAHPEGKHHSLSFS

KARPAS-299 = settings: Homo sapiens
Description: Antitumor activity against human KARPAS299 cells xenografted in SCID mouse assessed as tumor growth inhibition at 30 to 60 mg/kg, po bid administered for 10 days

[11] = AUC (infinity) in Sprague-Dawley rat at 10 mg/kg, po administered as single dose by LC-MS/MS analysis; format: ADME, organism-based; design: dose 10 mg/kg, time infinity, route oral; settings: in vivo
KM12 = assay: Antiproliferative activity against human KM12 cells expressing TRKA protein incubated for 72 hrs by cell titer-glo assay; settings: KM12, 72 h

Sequence of Serine/threonine-protein kinase NIM1 (Q8IY84 whole entry): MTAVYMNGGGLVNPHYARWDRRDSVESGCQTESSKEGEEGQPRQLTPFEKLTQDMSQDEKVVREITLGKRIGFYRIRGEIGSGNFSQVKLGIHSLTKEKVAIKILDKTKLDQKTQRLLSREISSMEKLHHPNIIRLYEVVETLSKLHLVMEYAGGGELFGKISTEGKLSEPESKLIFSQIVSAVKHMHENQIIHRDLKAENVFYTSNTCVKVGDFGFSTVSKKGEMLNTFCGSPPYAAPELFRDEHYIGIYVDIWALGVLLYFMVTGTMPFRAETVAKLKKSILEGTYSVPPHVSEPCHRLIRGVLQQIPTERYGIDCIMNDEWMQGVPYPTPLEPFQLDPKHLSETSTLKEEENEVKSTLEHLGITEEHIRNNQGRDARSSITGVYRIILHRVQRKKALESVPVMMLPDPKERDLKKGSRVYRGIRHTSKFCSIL

clearance [1]: 20.8 mL/min/kg
half-life [2]: 3.59 h
half-life [3]: 11.9 h
AUC(0-inf) [4]: 19.6 µM·h
half-life [5]: 3.8 h
IC50 [6]: > 10 µM
Tmax [7]: 2 h
IC50 [8]: > 10 µM
Kp at 6 h [9]: 0.43
IC50 [10]: 0.349 µM
AUC(0-inf) [11]: 5.13 µM·h
SMILES: CN1CCN(c2ccc(C(=O)Nc3n[nH]c4ccc(Cc5cc(F)cc(F)c5)cc34)c(NC3CCOCC3)c2)CC1 [ENTRECTINIB]
Activity (Mus musculus): Non-toxic
TGI (KARPAS-299): Active
IC50 (KM12): 0.017 µM
